From patent US7262173B2, “Chemosensitizing with liposomes containing oligonucleotides” (Georgetown University, priority 1997, dated 2007) come the findings set out here.

The subject of series [1] is Raf-1. As to the kind of experiment: Raf-1 expression in SQ-20B tumor xenografts after i.v. or intratumoral ODN. In kind it is in vivo, human. The following applies: intravenous treatment; compared with untreated controls. Here is the method:
FIG. 7: Effects of intravenous administration of LE-ATG-AS raf ODN (SEQ ID NO:1) our Raf-1 expression in normal and tumor tissues. Raf-1 expression was examined in liver, kidneys and SQ-20B tumor xenograft of Balb/c nu/nu mice after i.v. injections of 6 mg/kg daily dose of LE-ATG-AS raf ODN (SEQ ID NO:1) (AS) or LE-ATG-S raf ODN (SEQ ID NO:3) (S) for five consecutive days. Control mice (C) received normal saline. Representative data showing Raf-1 expression in lysates normalized for protein content by immunoprecipitation and immunoblotting (top). Quantification data are shown as mean±s.d. from three mice (bottom).
FIG. 8: Inhibition of Raf-1 protein expression in SQ-20B tumor xenografts by intratumoral administration of LE-ATG-AS raf ODN (SEQ ID NO:1): Each animal received intratumoral injections of LE-ATG-AS raf ODN (SEQ ID NO:1) (AS) on the right flank and LE-ATG-S raf ODN (SEQ ID NO:3) (S) on the left flank at a dose of 4 mg/kg daily for seven days as explained in the experimental procedures. […] Quantification data shown are mean±s.d., from three representative mice. […]
For in vivo expression studies, tumor tissue and organs were homogenized in the cell lysis buffer using Polytron homogenizer (Westbury, N.Y., USA). Raf-1 expression was analyzed in tissue homogenates by immunoprecipitation and immunoblotting as described above.
(Xenograft models place foreign cells or tissue in a host animal.)

Series [2] concerns Raf-1. The series can be described thus: Raf-1 immunoprecipitation and immunoblotting in SQ-20B cells (5132, LE-5132, LE-10353). In kind it is cell-based, human. The method, then:
FIG. 9: Antisense sequence-specific inhibition of Raf-1 expression in SQ-20B cells. (A) Logarithmically growing SQ-20B cells were treated with indicated ODN concentrations of LE-5132 (SEQ ID NO:4) (lanes 3, 5 and 10), 5132 (SEQ ID NO:4) (lanes 4 and 6), or LE-10353 (SEQ ID NO:5) (lane 9) as described in Materials and Methods. Control cells were either left untreated (lanes 1 and 7) or treated with 1 uM blank liposomes (BL) (lanes 2 and 8). Whole cell lysates were normalized for total protein content and immunoprecipitated with agarose-conjugated polyclonal anti-Raf-1 antibody. Immune complexes were resolved by 7.5% SDS-PAGE and immunoblotted with polyclonal anti-Raf-1 antibody. (B) Data from three independent experiments were quantified and expressed relative to the level of Raf-1 in untreated cells.
On day two, cells were rinsed with fresh 30% FBS, followed by a second course of the treatment schedule as on day one for an additional 24 hours. This procedure yielded a minimal exposure of cells of LE-5132 (SEQ ID NO:4) 12 hours). […] The lysates were clarified by centrifugation at 16,000 g for 20 minutes, and the protein concentrations were determined (Pierce, Rockford, Ill.). […] The Raf-1 protein level was quantified using the computer software program Image-Quant (Molecular Dynamics, Sunnyvale, Calif.).
A general note: Immunoblotting shows a protein as a band on a membrane.

A further series deals with SQ-20B tumor xenografts. As to the kind of experiment: SQ-20B tumor xenograft growth (LE-5132, 5132, ionizing radiation). In kind it is in vivo, Balb/c nu/nu mice. The following applies: 10 mg/kg i.v. daily 7 days then three doses on alternate days; day 35. Here is the method:
FIG. 13: Effect of LE-5132 (SEQ ID NO:4) on […] tumor growth. SQ-20B rumor cells (2×10^6) were injected a.c. into the left flank region of each male Balb/c nu/nu mouse, 10–12 weeks old. Tumor xenografts were grown to a mean tumor volume of 94±6.4 mm^3, and the animals were randomized into two treatment groups. Day 0 represents the first day of treatment. […] The data shown are mean±SE of 5–7 animals per group.
FIG. 15: Effect of LE-5132 (SEQ ID NO:4) and ionizing radiation on SQ-20B rumor growth. (A) SQ-20B tumor xenografts were grown in male Balb/c nu/nu mice as described. Animals bearing a mean tumor volume of 72.0±4.3 mm^3 were randomized into five treatment groups. Day 0 represents the first day of treatment. […]
Logarithmically growing SQ-20B cells were injected s.c. (2×10^o cells) in the left flank region in male Balb/c nu/nu mice under mild anesthesia. […] Volumes for tumors were determined from caliper measurements of the three major axes (a, b, c) and calculated using abc/2, an approximation for the volume of an ellipse (πabc/6).
For each experiment, tumor-bearing mice were randomly divided into different treatment group, with 5–7 animals per group. […] Using TLD dosimetry, the average dose rate to the center of the tumor and to the mouse body were determined beforehand using the experimental irradiation conditions and a custom-made, tissue-equivalent, mouse phantom. […]

For series [3] the following is noted: mouse, in vivo, iv, 30 mg/kg.
Protocol: FIG. 11: The plasma concentration-time profile of LE-5132 (SEQ ID NO:4) and 5132 (SEQ ID NO:4); 30 mg/kg LE-5132 (SEQ ID NO:4) or 5132 (SEQ ID NO:4) was administered i.v. in Balb/c nu/nu mice. Blood samples were collected from the retroorbital sinus at indicated times after injection, and ODN in plasma samples was extracted and analyzed by denaturing gel electrophoresis as described. […] Quantification data were calculated based on comparison with known concentrations of the standard samples and then normalized against sample dilution factors used for loading.
Male Balb/c nu/nu mice (National Cancer Institute, Frederick, Md.) were maintained in the Division of Comparative Medicine, Georgetown University, according to accredited procedures, and fed purina chow and water ad libitum. Mice were injected i.v. via the tail vein with 30 mg/kg of LE-5132 (SEQ ID NO:4) or 5132 (SEQ ID NO:4) formulated in PBS. At 5, 15, and 30 minutes and 1, 2, 4, 8, 24, and 48 hours after injection, animals were bled, under anesthesia, from the retroorbital sinus into heparinized tubes and killed by cervical dislocation. The blood was centrifuged immediately at 300 g for 10 minutes at 4° C. to separate the plasma. The liver, spleen, kidney, heart, and lungs were rapidly excised and rinsed in ice-cold normal saline. The plasma and organs were stored at −70° C. until further analysis.
Antisense raf ODN concentrations in plasma and tissue samples were detected as we described earlier (Gokhale et al., 1997). Briefly, the ODN was isolated from plasma samples using the phenol-chloroform extraction method and from tissues using a DNA extraction kit (Stratagene, La Jolla, Calif.). The raf ODN concentration standards were prepared by adding known amounts of 5132 (SEQ ID NO:4) in blank plasma or blank tissue samples, followed by extraction as described earlier. The extracts were loaded onto 20% pblyacrylamide/8 M urea gels and electrophoresed in TBE buffer. The gels were electroblotted onto nylon membranes in 0.5×TBE buffer at 20 V for one hour, and the blots were probed with [^32P]-labeled sense raf ODN probe in Quickhyb buffer (Stratagene) at 30° C. overnight. A 10–50-fold excess of the probe was used to ensure saturation of all bands. The autoradiographs were scanned using a computer program (Image-Quant software), and the amounts of antisense raf ODN in the samples were calculated by comparison with standards.

With “5′-GCAT-CAATGGAGCAC-3′ (sense GCATCAATGGAGCAC; listed as DNA, chemistry not fully specified) [ATG-S raf ODN]”, the “effect on Raf-1 expression in tumor tissue” value in the series on Raf-1 [1] is reported as “no effect”.

Turning to “5′-TCC-CGC-CTG-TGA-CAT-GCA-TT-3′ [compound 5132]”, the “effect on Raf-1 expression in cell culture” value in the series on Raf-1 [2] is recorded as “ineffective”. In addition, in the series with SQ-20B tumor xenografts, the “mean tumor volume compared with day 0 (100%)” value is 159.6%±10.0%. For the same substance, in series [3], the AUCarea was determined as 6200 ng·h/mL, the “CL (total body clearance)” value worked out at 80.3 mL/min/kg, the “Cmax (peak plasma concentration)” value was 13570 ng/mL and the “Vdarea (volume of distribution)” value turned out to be 29.96 L/kg. In addition, in series [3], the initial distribution half-life amounted to 0.36 h, the “t1/2β (elimination half-life)” value was 4.30 h and the “terminal half-life (t1/2β)” value was 4.3 h.
